Earlier results on two compounds are cited in patent US20060251786A1 (priority 2005, published 2006).

For the data set the following is noted: scale of 1-6; Gosselin et al., 5th ed, 1984.

Consider `CN1CCCC1c1cccnc1` (centres unmarked) [nicotine], for which the toxicity level is on record as 6.
As to `O=c1ccc2ccccc2o1` [coumarin, 1,2-benzopyrone], the toxicity level is given as 4.
